Data from US20060183119A1, “Method for determining predisposition to a physiological reaction in a patient” (UNIVERSITE LAVAL, priority 2002, published 2006).
Where two headings read alike, the source gives them in different places.

Tests used:
[1] = target: T1, human UGT1A9*2 (Homo sapiens, UniProt O60656, C3Y); assay: Glucuronidation by microsomes of HEK-293 cells stably expressing UGT1A9*2; conditions: for Vmax / Km: SN-38 glucuronidation
T1 sequence (O60656 26-530): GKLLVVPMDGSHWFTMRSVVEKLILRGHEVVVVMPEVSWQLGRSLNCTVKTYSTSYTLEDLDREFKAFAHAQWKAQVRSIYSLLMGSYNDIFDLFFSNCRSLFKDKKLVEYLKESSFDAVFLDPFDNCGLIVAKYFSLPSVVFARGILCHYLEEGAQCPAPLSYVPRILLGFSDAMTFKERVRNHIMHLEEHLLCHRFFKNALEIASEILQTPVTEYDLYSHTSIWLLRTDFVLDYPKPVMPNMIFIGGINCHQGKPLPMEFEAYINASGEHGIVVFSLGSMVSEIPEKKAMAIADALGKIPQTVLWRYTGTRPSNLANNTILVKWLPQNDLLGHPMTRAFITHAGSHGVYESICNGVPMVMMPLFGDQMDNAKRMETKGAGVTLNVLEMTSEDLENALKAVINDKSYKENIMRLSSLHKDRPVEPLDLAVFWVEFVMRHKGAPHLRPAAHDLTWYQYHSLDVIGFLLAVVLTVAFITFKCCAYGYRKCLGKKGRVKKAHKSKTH
Protocol: Microsomal fractions from HEK-293 cells stably expressing human UGT1A9*1, UGT1A9*2 and UGT1A9*3 were used in enzymatic assays. Reactions (100 μl volume) contained 50 mM Tris-HCl, pH 7.3, 10 mM MgCl2, 100 μg/mL phosphatidylcholine, 1 mM UDP-glucuronic acid, 40 to 60 μg of membrane protein. […] Human liver microsome were incubated in the same condition for control. Reaction was stopped by the addition of 200 μL MeOH+1% HCl 2N, followed by centrifugation at 14000 rpm for 10 minutes. Supernatant was filtered through a 0.22 μm filter and 100 μL of water was added. For SN-38 and SN-38-glucuronide detection, 10 μL samples were injected on a liquid chromatographic system coupled to a fluorescence detector. Time-course experiments were realized to determine the linearity of the glucuronidation reaction.
A liquid chromatographic method was developed to quantify SN-38 glucuronidation of UGT cell line-derived microsomes and human liver microsomes. Samples were analyzed using high performance liquid chromatography (Alliance 2695, Waters, Milford, Mass.). […] At a constant flow rate (0.7 ml/min), a linear gradient from 20 to 65% B was run over 3 min, held 0.8 min and a second gradient until 95% of B was run over 2 min and then re-equilibrated to 20% B over 2 min. The effluent from the HPLC system (Alliance 2695) was connected directly to a fluorescence detector (Waters, Milford, Mass.) using an excitation wavelength of […] and an emission of 460 nm. […] Determination of the glucuronidation rates obtained with other substrates was performed as currently known in the art.
Microsomal fractions from HEK293 (40 to 60 μg) were added to a reaction mixture (100 μL) containing 50 mM Tris-HCl, pH 7.3, 10 mM MgCl2, 100 μg/mL phosphatidylcholine and 2 mM UDP-glucuronic acid. […] Commercially available human liver microsomes (Human Cell Culture Center Inc., Laurel, Md.) were incubated in the same conditions for all experiments. Time-course experiments were performed to determine the linearity of the glucuronidation reaction. For the determination of Vmax and Km. HEK293 cells stably expressing UGT1A9 enzymes were incubated in the presence of various concentrations of SN-38 ranging from 0.1 to 200 μM and incubated for 30 min as described above whereas UGT1A7 membranes preparations were incubated for 3 hours. […] Reactions with SN-38 were stopped by the addition of 200 μL MeOH+1% HCl 2N, followed by centrifugation at 14000×g for 10 minutes. The supernatants were filtered through a 0.22 μm membrane and 100 μL of water was added to the filtrate. For the detection of SN-38 and its glucuronide (SN-38G), 10 μL samples were injected in a liquid chromatographic system (HPLC) coupled to fluorescence detector as described below.
A HPLC method was developed to quantify the rates of SN-38 glucuronidation from the various microsomal fractions under study. The HPLC system used was an Alliance 2695 (Waters, Milford, Mass.) equipped with a 50×3.2 mm Colombus C18 column (Phenomenex, Torrance, Calif.). […] Then a second gradient ranging from 65% to 95% solvent B was generated during the following 2 min. Finally, the column was re-equilibrated to 20% solvent B for 2 min. The column was connected to a fluorescence detector model 474 (Waters, Milford, Mass.) and the molecules were excited at a wavelength of 370 nm and an emission of 425 nm.

[2] = target: T2, UGT1A7*4 (Homo sapiens, UniProt Q9HAW7, W208R); assay: SN-38 glucuronidation by microsomes of HEK293 cells expressing UGT1A7*4; assay type: in vitro ADME; design: key to Function (SN-38G formation versus *1 allele): High: no significant difference in activity compared to *1 allele.; Low: significantly lower SN-38G formation versus *1 allele
T2 construct: expressed in transfected cells
T2 sequence (Q9HAW7 26-530 W208R): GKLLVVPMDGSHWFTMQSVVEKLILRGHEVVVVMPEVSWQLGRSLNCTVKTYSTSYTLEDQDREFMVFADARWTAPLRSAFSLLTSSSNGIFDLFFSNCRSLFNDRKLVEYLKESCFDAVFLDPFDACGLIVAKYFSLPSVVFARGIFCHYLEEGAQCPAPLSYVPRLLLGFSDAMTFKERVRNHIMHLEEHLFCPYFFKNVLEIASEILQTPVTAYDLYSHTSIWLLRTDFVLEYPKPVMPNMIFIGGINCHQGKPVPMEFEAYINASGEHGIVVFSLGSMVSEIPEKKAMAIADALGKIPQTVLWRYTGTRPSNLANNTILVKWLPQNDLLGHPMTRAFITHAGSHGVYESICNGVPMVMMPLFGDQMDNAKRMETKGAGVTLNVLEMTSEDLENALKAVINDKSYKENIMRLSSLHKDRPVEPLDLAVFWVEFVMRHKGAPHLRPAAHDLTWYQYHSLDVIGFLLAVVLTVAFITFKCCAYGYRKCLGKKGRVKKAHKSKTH
Protocol: Western blot analyses of UGT1A7 and UGT1A9 variants expressed in HEK293 cells were performed on microsomal proteins (10 μg) separated on a 10% SDS-polyacrylamide gel. After transferring the proteins, the membranes were probed with an anti-UGT1A RC-71 polyclonal antibody and with an anti-calnexin antibody. The relative levels of UGT1A9 (a) and UGT1A7 proteins (b) were determined by semi-quantitative densitometric analysis of the Enhanced chemiluminescence (ECL) image. The in vitro SN-38 activity was assessed using microsomal fractions prepared from HEK293 cells expressing the *1 and variant UGT1A9 (c) and UGT1A7 (d) alleles and incubated with 5 μM of SN-38 as described in Materials and Methods.
For the determination of Vmax and Km.

Structure (SMILES): CCc1c2c(nc3ccc(O)cc13)-c1cc3c(c(=O)n1C2)COC(=O)[C@]3(O)CC [SN-38, 7-ethyl-10-hydroxycamptothecin]
- effect on conjugation rate of SN-38 (in words) ([1]; 5 μM of SN-38, versus wild type): no significant effect
- Vmax ([1]; 0.1 to 200 μM, mean±SD): 324.38 ± 95.09 pmol/min/mg protein
- Km ([1]; Table 5): 5.15 ± 1.81 µM
- Vmax ([1]; Table 5): 324.68 ± 95.09
- Km ([1]; read-out: Apparent Km, 0.1 to 200 μM, mean±SD, Lineweaver-Burk): 5.15 ± 1.81 µM
- increased activity (SN-38 conjugation) ([1]; tyrosine at codon 3, versus UGT1A9*1): 16.7%
- SN-38 glucuronidating activity of the allele (in words) [2]: low
- Function (SN-38G formation versus *1 allele) ([2]; in vitro experiments): Low
